In one test the test system is MCF7 (breast). Nature of the test: MTT in vitro cytotoxic activity assay, MCF7. The test is classed as cell-based. The settings on record: Homo sapiens; MCF7 cells, exposed for 96 hours; read-out: Cytotoxicity activity IC50, MCF7 (breast). As for the experimental part:
(§1) Compounds 1-20 were screened for their in vitro cytotoxic activity utilizing a 3-(4,5-dimethyl-thiazol-2-yl)-2,5-diphenyltetrazolium bromide (MTT) assay against selected cancer human cell lines consisting of PC3 (prostate), HCT 116 (colon), A375 (melanoma), H1299 (lung), MIAPaCa-2 (pancreas), HL60 (leukemia), MCF7 (breast), MDA-MB-231 (breast) (T. Mosmann, J. Immunol. Meth., 1983, 65, 55-63). The cells were cultured at 37° C. in RMPI1640 medium supplemented with 10% fetal bovine serum, 50 IU/mL penicillin, and 50 μg/mL streptomycin in a 5% CO2 incubator. All cells were sub-cultured 3 times/week by trypsinisation. Viable cells were seeded and allowed to adhere for 12 h before a test drug was added in 96-well plates at an initial density of 1.0×10^5 cells/mL. Tumor cell lines were separately exposed to various concentrations of the tested compounds followed by incubation at a temperature of 37° C. during 96 hours inside a medium of fresh RMPI 1640. Cells were subsequently incubated at 37° C. using MTT at 0.5 mg/mL during 4 hours. After removal of supernatant, formazan crystals were dissolved in isopropanol and the optical density was measured at 570 nm. CX-4945 was used as a positive control.

A further test concerns PC3 (prostate). Nature of the test: MTT in vitro cytotoxic activity assay, PC3. The test is classed as cell-based. The settings on record: Homo sapiens, PC-3; PC3 cells, exposed for 96 hours; read-out: Cytotoxicity activity IC50, PC3 (prostate). The method, then:
as §1

Another test has as its system HCT116 (colon). As to the kind of experiment: MTT in vitro cytotoxic activity assay, HCT116. The format is cell-based. The settings on record: Homo sapiens, HCT-116; HCT116 cells, exposed for 96 hours; read-out: Cytotoxicity activity IC50, HCT116 (colon). As for the experimental part:
as §1

For another test, the system named is A375 (melanoma). Nature of the test: MTT in vitro cytotoxic activity assay, A375. The format is cell-based. The settings on record: Homo sapiens, A-375; A375 cells, exposed for 96 hours; read-out: Cytotoxicity activity IC50, A375 (melanoma). The method, then: as §1
The next test has as its target T1, recombinant human CK2 (Homo sapiens, UniProt P68400).
T1 construct: purchased Millipore
As to the kind of experiment: CK2 Kinase Assay (33P-ATP, substrate peptide RRRDDDSDDD). The format is biochemical. The settings on record: recombinant human CK2 holoenzyme, final ATP 15 μM, 10 min at 30° C.; read-out: protein kinase CK2 activity IC50. As for the experimental part: CK2 Kinase Assay was conducted using the protocol as described in Pierre F. et al; J. Med. Chem. 2011, 54, 635-654. The tested compounds in aqueous solution were added at a volume of 10 μL to a reaction mixture comprising 10 μL of assay dilution buffer (ADB; 20 mM MOPS, pH 7.2, 25 mM β-glycerol phosphate, 5 mM EGTA, 1 mM sodium orthovanadate, and 1 mM dithiothreitol), 10 μL of substrate peptide (RRRDDDSDDD, dissolved in ADB at a concentration of 1 mM), 10 μL of recombinant human CK2 (RRββ-holoenzyme, 25 ng dissolved in ADB; Millipore). Reactions were initiated by the addition of 10 μL of ATP solution (90% 75 mMMgCl2, 75 sM ATP (final ATP concentration:15 μM) dissolved in ADB; 10% [γ-^33P] ATP (stock 1 mCi/100 μL; 3000 Ci/mmol (Perkin-Elmer) and maintained for 10 min at 30° C. The reactions were quenched with 100 μL of 0.75% phosphoric acid and then transferred to and filtered through a phosphor cellulose filter plate (Millipore). After washing each well five times with 0.75% phosphoric acid, the plate was dried under vacuum for 5 min and, following the addition of 15 μL of scintillation fluid to each well, the residual radioactivity was measured using a Wallac luminescence counter. The IC50 values were derived from eight concentrations of test inhibitors.

The subject of a further test is HL60 (leukemia). As to the kind of experiment: MTT in vitro cytotoxic activity assay, HL60. The test is classed as cell-based. The settings on record: Homo sapiens, HL-60; HL60 cells, exposed for 96 hours; read-out: Cytotoxicity activity IC50, HL60 (leukemia). As for the experimental part: as §1
The next test relates to MDA-MB-231 (breast). Nature of the test: MTT in vitro cytotoxic activity assay, MDA-MB-231. The format is cell-based. The settings on record: Homo sapiens; MDA-MB-231 cells, exposed for 96 hours; read-out: Cytotoxicity activity IC50, MDA-MB-231 (breast). As for the experimental part:
as §1

A further test deals with H1299 (lung). Nature of the test: MTT in vitro cytotoxic activity assay, H1299. The settings on record: Homo sapiens, NCI-H1299; H1299 cells, exposed for 96 hours; read-out: Cytotoxicity activity IC50, H1299 (lung). The test is classed as cell-based. As for the experimental part: as §1
For another test, the system named is MIAPaCa-2 (pancreas). Nature of the test: MTT in vitro cytotoxic activity assay, MIAPaCa-2. The format is cell-based. The settings on record: Homo sapiens, MIA PaCa-2; MIAPaCa-2 cells, exposed for 96 hours; read-out: Cytotoxicity activity IC50, MIAPaCa-2 (pancreas). As for the experimental part: as §1

T1 sequence (P68400 whole entry): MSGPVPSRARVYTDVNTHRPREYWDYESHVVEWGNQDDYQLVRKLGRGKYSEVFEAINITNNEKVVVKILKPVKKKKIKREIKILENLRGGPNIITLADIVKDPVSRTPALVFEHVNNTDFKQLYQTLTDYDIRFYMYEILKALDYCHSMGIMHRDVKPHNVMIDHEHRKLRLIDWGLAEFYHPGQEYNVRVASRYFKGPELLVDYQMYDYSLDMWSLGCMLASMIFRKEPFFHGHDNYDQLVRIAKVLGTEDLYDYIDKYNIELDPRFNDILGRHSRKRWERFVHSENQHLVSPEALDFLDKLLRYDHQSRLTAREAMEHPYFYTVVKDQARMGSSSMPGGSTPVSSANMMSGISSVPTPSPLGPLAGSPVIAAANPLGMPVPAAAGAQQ
T1 sequence (P67870 whole entry partner): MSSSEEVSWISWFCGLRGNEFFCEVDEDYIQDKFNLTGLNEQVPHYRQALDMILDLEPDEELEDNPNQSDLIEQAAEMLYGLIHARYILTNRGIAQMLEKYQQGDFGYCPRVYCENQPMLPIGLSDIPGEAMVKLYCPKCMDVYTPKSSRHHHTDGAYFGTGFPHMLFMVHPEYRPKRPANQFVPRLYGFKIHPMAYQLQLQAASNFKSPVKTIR

Take `Clc1cccc(Nc2c(-c3ccncn3)nn3cnccc23)c1` [Compound 13, N-(3-chlorophenyl)-2-(pyrimidin-4-yl)pyrazolo[1,5-c]pyrimidin-3-amine]: the IC50 (usually the concentration that gives 50% inhibition) in the test on MCF7 (breast) is 5500 nM; in the test with PC3 (prostate) it was 1200 nM; in the test on HCT116 (colon) it was 2100 nM; in the test with A375 (melanoma), 3400 nM; on recombinant human CK2 it was 110 nM; with HL60 (leukemia), 3900 nM. For the same compound, the IC50 in the test with MDA-MB-231 (breast) stood at 4600 nM; in the test on H1299 (lung) it was 1600 nM; in the test with MIAPaCa-2 (pancreas), 1500 nM.

For the origin of these results see US11970499B1, “Pyrazolo[1,5-c]pyrimidine compounds as CK2 inhibitors” (KING FAISAL UNIVERSITY, priority 2023, dated 2024).
